Assay [1] relates to BALB/c and C57BL/6 mice. Briefly: Wall rearing of mice counted by the force plate actometer algorithm. The following applies: amphetamine 2.5 mg/kg, 30-min session. The format is in vivo, mouse. From the text: The preferred force plate actometer of this invention provides data that, when appropriately filtered and processed, provides estimates of the number of wall rears that an animal makes. This is of importance in pharmacology and behavioral genetics studies because some drugs are known to suppress rearing, and genetic endowment influences mouse rearing behavior. It is possible to detect wall rearing because when the mouse rears on hind legs and presses its forepaws against the side of the enclosure a substantial proportion of its body weight is transferred to the wall which is suspended above the force plate. […] Data from four chambers are concurrently expressed as the smoothed Fz values, and these are processed in a stream from the beginning of the session to the end of the session. The rears are quantified according to occurrence, intensity, duration of the rear, and time between the rears.
The program was validated by comparing the results from a human observer viewing video tapes taken from 30-min sessions of force plate recording for two mice: one BALB/c and one C57BL/6 mouse, two very genetically different mice. In terms of number of rears for the BALB/c mouse the video scored and computer scored wall rears were correlated +0.842 across 30 1-min blocks of the session. […]

Assay [2] deals with male Sprague-Dawley rats. Briefly: Instrument-scored stereotypies induced by d-amphetamine in rats (force plate actometer). The assay is classed as in vivo, rat. On the procedure:
The subjects were male Sprague-Dawley rats about 4 months old at the time of the treatments. Nine rats received amphetamine injections and 8 separate rats got physiological saline injections. These rats weighed about 350 g each and were obtained from Harlan Co., Indianapolis, Ind.
The apparatus was four concurrently operating force plate actometers as described previously.
Rats in the amphetamine group were injected (ip.) with d-amphetamine sulfate 3.0 mg/kg 15 min before being placed in the chambers for 30 min of recording. Amphetamine injections were administered on three separate occasions spaced 2 weeks apart for each amphetamine group rat. Data from the 3rd session, when stereotypies were expected to be intense, were used for the analyses. Rats in the saline group received ip injections of physiological saline before recording sessions on three separate days. Data from the 3rd day were used for comparison with the amphetamine group.
Data were analyzed with the computer program OFFLINEP.PAS (FIGS. 18A-18C) and with additional techniques available in Systat. The program OFFLINEP.PAS identified bouts of low mobility, defined as periods of no locomotion outside of a 30 mm diameter circle for 10.24 s. Corresponding records of the force variation during the same time frame were stored so that the rhythmic components of behavior could be quantified with Fourier analysis. The basic concept was to define stereotypy as the intensity and rhythm of behavior occurring in “one place” under the influence of a stereotypy-inducing dose of amphetamine and to compare these measures to animals “staying in one place” but not under the influence of a drug.

For assay [3], the system named is unilaterally 6-hydroxydopamine lesioned and sham rats. The experiment in a line: Rotational behavior induced by d-amphetamine in rats unilaterally lesioned with 6-hydroxydopamine (Parkinsonism model). The assay is classed as in vivo, rat. The following applies: d-amphetamine 3.0 mg/kg ip. On the procedure:
These rats met the same specifications as those used in Examples 1 and 2.
The apparatus was the force plate actometer with the cylindrical insert installed as depicted in FIG. 20. This insert presents the rat with a circular arena in which it can move. Note that neither harness nor tether was used. The rotations were calculated by the computer from the position coordinates derived from the force plate.
Rats were lesioned with the neurotoxin 6-hydroxydopamine. Surgery was performed under ketamine plus xylazine anesthesia. A Kopf stereotaxic instrument was used to guide the injection cannula to the substantia nigra pars compacta. A sham surgery group received the same surgical procedure but saline instead of toxin. About 2 weeks after surgery and at two week intervals rats received three separate injections of d-amphetamine (3.0 mg/kg, ip, 15 min prior to recording sessions). Data shown here were from one control rat and one lesioned rat for the third drug treatment. Data were analyzed with the OFFLINEP.PAS program (FIGS. 18A-18C).

The subject of assay [4] is BALB/c, C57BL/6 and CD-1 mice. The experiment in a line: Mouse strain differences in response to daily treatment with d-amphetamine (force plate actometer). The assay is classed as in vivo. On the procedure:
Male mice from Charles River Laboratories. BALB/c (n=32), C57BL/6 (n=32), and CD-1 (an outbred strain, n=32), were about 10 weeks old when the treatments began.
Four currently operating force plate chambers were used (the cylindrical insert was not present).
For each type of mouse, 4 dose groups were formed so that 8 mice of each strain received either saline, 1.0, 2.5 or 5.0 mg/kg d-amphetamine. On five consecutive days the mice received ip injections 1-2 min before being placed in the recording chambers for 30 min. Immediately before the drug session each mouse received a 30-min recording session preceded by a saline injection.
Data were analyzed with a version of OFFLINEP.PAS that divided the session into 9 intervals of 3 min and 24.8 s, instead of 45 frames as in the studies described in the preceding Examples. However, some graphic analyses were carried out with 45 frames. Analysis of variance was used to assess the effects of strain, dose, time within a session, and days of treatment (i.e., a 3×4×9×5 factorial design).

Assay [5] relates to CD-1, BALB/c and C57BL/6 mice. The following applies: 2.0 g/kg ip; for locomotor stimulation during the first time block: versus saline control. On the procedure: The subjects were 12 male mice of each of the three strains: CD-1, BALB/c, and C57BL/6 obtained from Charles River Laboratories.
The force plate actometer was used as described above.
The mice were subdivided into groups of 6 each. One group received saline, and the corresponding other group of that strain received a dose of 2.0 g/kg of ethanol in a 20% aqueous solution. This was the first exposure to the chamber for these mice. Within 1-2 min of the ip injection the mice were placed in the chamber and behavior was recorded for 30 min.
The distance data were divided into 6 blocks of 5 min each, and analysis of variance (3 strains×saline vs drug×6 time blocks) was used to establish the presence of effects.

Assay [6] has as its system male Sprague Dawley rats. The experiment in a line: Quantification of harmaline-induced tremor in rats (force plate actometer). The assay is classed as in vivo, rat. On the procedure:
Thirty-two male Sprague Dawley rats from Harlan Co, Indianapolis, Ind., were studied.
The apparatus was the force plate actometer, described above, with no adjustments or modifications. If one were to use the instrument primarily for tremor studies, it would be possible to “tune” it for such purposes. For example, sessions of recording shorter than 30 min may be preferred and a sampling rate of 100 Hz or more may be desirable.
The rats were divided into 4 separate groups of 8 rats each. Separate groups received different doses of Harmaline hydrochloride as follows: 0.0 (saline), 4.0, 8.0, and 16.0 mg/kg, ip, 1-2 minutes before being placed in the recording chamber.
Data from the 30-min sessions were broken into 45 equal-length intervals of 40.96 s (or 2048 samples at a sampling rate of 50 Hz). […] Then, a tremor index was computed for each power spectrum. The tremor index was the difference between the average power in the 0.02-4.980 Hz frequency band and the 5.005-15.015 Hz frequency band of each power spectrum. This calculation emphasizes the peaking of the spectrum in the 5-15 Hz frequency band regardless of the absolute power level of the spectrum. A session average of the tremor index was obtained for each rat. Dose-effects statistical analyses were performed with one-way analysis of variance.

Setting [7] is: 3.0 mg/kg ip, Fourier analysis, FIG. 3.

Each structure is given as a SMILES string. Structures can show the parent of a compound that is named as a salt. Where two headings read alike, the source gives them in different places.

On to `C[C@H](N)Cc1ccccc1` [amphetamine, d-amphetamine sulfate], for which the “mean number of wall rears” value in assay [1] (BALB/c mice, untreated mean 92.5 rears) stood at 3.75 rears/session; in assay [1] (C57BL/6 mice, untreated mean 70.8 rears), 3.5 rears/session. In addition, the “number of low mobility bouts per frame versus saline control” value in assay [2] (3.0 mg/kg ip 15 min before 30-min session, 3rd injection, FIG. 1) is reported as “comparable amounts of low mobility bouts”. The “stereotypy score (activity during low mobility bouts) versus saline control” value in assay [2] (3.0 mg/kg ip, 3rd injection, FIG. 2) is “very active”. Also, in assay [2] (3.0 mg/kg ip, 3rd injection, n=9), the “visual observation of stereotypies on removal from the chamber” value was “all nine rats were engaged in classical nose poking, sniffing, and head-weaving stereotypies”. Also, in assay [2] (3.0 mg/kg ip, FIG. 3 versus FIG. 4, controls show no 10-Hz peak), the “difference in spectral power, amphetamine rats above saline controls” value is given as 10-20 db. In addition, the “frequency range of strong rhythmicity in power spectra of low mobility bouts” value in assay [2] (setting [7]) is listed as 8-11 Hz. The “low frequency power in power spectra of low mobility bouts” value in assay [2] (setting [7]) is “distinctive lack of low frequency power below about 0.5 Hz”. In addition, the “rotational behavior, movement tracings” value in assay [3] (one 6-OHDA lesioned rat, FIG. 8) was “robust rotational behavior”. For the same compound, the “rotations to the right in 30-min session” value in assay [3] (one 6-OHDA lesioned rat, third treatment, FIG. 10) is recorded as 62 rotations. Besides, the “bouts of high activity with low mobility (stereotypy score)” value in assay [3] (one 6-OHDA lesioned rat, third treatment, FIG. 12) was “four”. In addition, the “locomotion, movement tracings” value in assay [3] (one unlesioned control rat, FIG. 7) is “very little locomotion”. Also, the stereotypy score in assay [3] (one unlesioned control rat, frame 14 to end of session, FIG. 11) is given as 250-300. In assay [3] (one unlesioned control rat, third treatment, FIG. 9), the “leftward rotations at the beginning of the session” value is 12 rotations. Also, the “distance traveled, ranking of strains” value in assay [4] (2.5 mg/kg ip, CD-1, C57BL/6, BALB/c, FIG. 15) is “CD-1's were stimulated the most and the BALB/c's the least”. Moreover, in assay [4] (BALB/c mouse, the two highest doses (2.5 and 5.0 mg/kg)), the “spatial statistic, restriction of movements in space” value is listed as “greater tendency to restrict its movements in space”. The “distance traveled across the 5 treatment days” value in assay [4] (C57BL/6 mouse, 2.5 mg/kg ip) is reported as “showed a sensitization effect”. Further, the “movement trajectories (locomotion)” value in assay [4] (one C57BL/6 mouse, fifth injection of 5.0 mg/kg ip, FIG. 14 versus saline FIG. 13) is “locomotor stimulating effect of the drug is apparent”. In addition, the “distance traveled, effect of dose” value in assay [4] (three mouse strains, saline, 1.0, 2.5, 5.0 mg/kg ip, 5 days, ANOVA dose F(3,84)=73.787, p<0.001, strain-by-dose F(6,84)=9.293, p<0.001, FIG. 15) is reported as “significant effects”. Moreover, the “spatial statistic (spatial index), effect of dose” value in assay [4] (three mouse strains, saline, 1.0, 2.5, 5.0 mg/kg ip, ANOVA dose F(3,84)=38.192, p<0.001, strain-by-dose F(6,84)=4.991, p<0.001, FIG. 16) is “significant effects”.

As to `CCO` [ethanol], in assay [5] (ANOVA F(2,30)=3.257, p=0.05), the “distance traveled, strain-by-ethanol interaction” value is reported as “significant strain-by-ethanol interaction”. The “distance traveled, time-by-ethanol interaction” value in assay [5] (ANOVA F(5,150)=7.629, p<0.001) is on record as “significant-time-by-ethanol interaction”. In addition, the entries for the “locomotor stimulation during the first time block” value in assay [5] (BALB/c strain) and in assay [5] (CD-1 strain) were “greater amount of ethanol related locomotor stimulation” and “least stimulation”, respectively. In addition, the “proportional increase in activity, BALB/c versus other strains” value in assay [5] (BALB/c, early in session) is on record as “greatest proportional increase in activity”. Also, the “distance traveled versus saline treated mice” value in assay [5] (three mouse strains, 30 min in 5-min blocks, FIG. 17) is recorded as “initially stimulated”.

For the compound `COc1ccc2c3c([nH]c2c1)C(C)=NCC3.Cl` [harmaline, Harmaline hydrochloride], the “effect of dose on tremor index” value in assay [6] (rats, 0, 4.0, 8.0, 16.0 mg/kg ip, session average, one-way ANOVA F (3,28)=5.090, p=0.006, FIG. 6) is reported as “statistically significant”. Moreover, in assay [6] (rats, 0-16.0 mg/kg ip, F(2,28)=3.222, p=0.038), the “latency to the first bout of low mobility” value is listed as “significantly shortened”. The “shape of the dose-effect function of the tremor index” value in assay [6] (rats, 0-16.0 mg/kg ip, FIG. 6) is recorded as “log linear”. Further, the “effect on locomotor activity” value in assay [6] (rats, 0-16.0 mg/kg ip, same session, F(3,28)=6.514, p=0.002) is listed as “dose-relatedly suppressed locomotor activity”. Further, in assay [6] (rats, the two higher doses (8.0 and 16.0 mg/kg ip), one rat per dose, FIG. 5), the “peaking in the power spectra of Fz force” value is listed as “pronounced”.

The record behind these values is patent US6601010B1 (priority 2000, dated 2003).
